Measurements as given in US9474758B2, “Thienopyrimidinedione derivatives as TRPA1 modulators” (Glenmark Pharmaceuticals S.A., priority 2009, dated 2016).
Where two headings read alike, the source gives them in different places.

Experiments:
[1] = target: T1, Human TRPA1 expressing CHO cells (Homo sapiens, UniProt O75762); test: 45Calcium uptake assay, inhibition of AITC induced calcium uptake (human); type: cell-based; settings: for inhibition at 1 µM: read-out: Percentage inhibition at 1.0 μM; for inhibition at 10 µM: read-out: Percentage inhibition at 10.0 μM
T1 construct: expressed in transfected cells; host or cells: CHO cells (G-418 selection)
T1 sequence (O75762 whole entry): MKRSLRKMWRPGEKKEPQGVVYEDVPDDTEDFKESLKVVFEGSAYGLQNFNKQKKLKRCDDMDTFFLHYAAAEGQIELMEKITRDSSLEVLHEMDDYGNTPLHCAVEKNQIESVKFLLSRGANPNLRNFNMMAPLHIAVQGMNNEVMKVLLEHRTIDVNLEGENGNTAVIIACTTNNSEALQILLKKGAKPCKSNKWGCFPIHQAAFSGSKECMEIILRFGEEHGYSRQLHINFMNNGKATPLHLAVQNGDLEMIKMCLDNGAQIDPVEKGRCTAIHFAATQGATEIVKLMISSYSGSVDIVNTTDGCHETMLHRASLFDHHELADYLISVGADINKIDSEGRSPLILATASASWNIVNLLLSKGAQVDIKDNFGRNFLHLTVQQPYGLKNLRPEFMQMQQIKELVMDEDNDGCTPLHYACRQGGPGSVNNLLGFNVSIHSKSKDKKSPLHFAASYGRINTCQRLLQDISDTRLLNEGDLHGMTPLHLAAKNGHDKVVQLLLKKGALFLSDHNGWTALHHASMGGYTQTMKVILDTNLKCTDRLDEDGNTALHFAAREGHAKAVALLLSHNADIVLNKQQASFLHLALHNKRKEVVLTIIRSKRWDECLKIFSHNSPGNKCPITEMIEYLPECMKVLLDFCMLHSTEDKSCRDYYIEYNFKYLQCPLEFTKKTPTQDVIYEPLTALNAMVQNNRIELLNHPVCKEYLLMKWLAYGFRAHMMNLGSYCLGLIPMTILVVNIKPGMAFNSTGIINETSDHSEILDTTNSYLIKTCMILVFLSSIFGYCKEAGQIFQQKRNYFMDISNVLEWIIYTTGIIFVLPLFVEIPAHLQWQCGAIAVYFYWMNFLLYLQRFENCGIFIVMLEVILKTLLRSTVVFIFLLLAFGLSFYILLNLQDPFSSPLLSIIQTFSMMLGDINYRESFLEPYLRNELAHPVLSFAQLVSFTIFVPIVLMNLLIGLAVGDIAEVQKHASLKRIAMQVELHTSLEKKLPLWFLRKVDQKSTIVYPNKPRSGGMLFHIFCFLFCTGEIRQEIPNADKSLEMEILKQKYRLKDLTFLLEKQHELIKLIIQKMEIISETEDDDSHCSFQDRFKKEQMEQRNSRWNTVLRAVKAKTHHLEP
Method in brief: (§1)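 CHO cells expressing rat or human TRPA1 were pre-treated with compound for 10 min, then given AITC (30 μM human, 10 μM rat) plus 5 μCi/ml 45Ca2+ for 3 min; final DMSO 0.5%. Lysate radioactivity was counted by scintillation. IC50 came from nonlinear regression of concentration-response curves as % of maximal response.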

[2] = target: T2, Rat TRPA1 expressing CHO cells (Rattus norvegicus, UniProt Q6RI86); test: 45Calcium uptake assay, inhibition of AITC induced calcium uptake (rat); type: cell-based; settings: for inhibition at 1 µM: read-out: Percentage inhibition at 1.0 μM; for inhibition at 10 µM: read-out: Percentage inhibition at 10.0 μM; for IC50: read-out: Rat IC50 value (Range)
T2 construct: expressed in transfected cells; host or cells: CHO cells (Zeocin selection)
T2 sequence (Q6RI86 whole entry): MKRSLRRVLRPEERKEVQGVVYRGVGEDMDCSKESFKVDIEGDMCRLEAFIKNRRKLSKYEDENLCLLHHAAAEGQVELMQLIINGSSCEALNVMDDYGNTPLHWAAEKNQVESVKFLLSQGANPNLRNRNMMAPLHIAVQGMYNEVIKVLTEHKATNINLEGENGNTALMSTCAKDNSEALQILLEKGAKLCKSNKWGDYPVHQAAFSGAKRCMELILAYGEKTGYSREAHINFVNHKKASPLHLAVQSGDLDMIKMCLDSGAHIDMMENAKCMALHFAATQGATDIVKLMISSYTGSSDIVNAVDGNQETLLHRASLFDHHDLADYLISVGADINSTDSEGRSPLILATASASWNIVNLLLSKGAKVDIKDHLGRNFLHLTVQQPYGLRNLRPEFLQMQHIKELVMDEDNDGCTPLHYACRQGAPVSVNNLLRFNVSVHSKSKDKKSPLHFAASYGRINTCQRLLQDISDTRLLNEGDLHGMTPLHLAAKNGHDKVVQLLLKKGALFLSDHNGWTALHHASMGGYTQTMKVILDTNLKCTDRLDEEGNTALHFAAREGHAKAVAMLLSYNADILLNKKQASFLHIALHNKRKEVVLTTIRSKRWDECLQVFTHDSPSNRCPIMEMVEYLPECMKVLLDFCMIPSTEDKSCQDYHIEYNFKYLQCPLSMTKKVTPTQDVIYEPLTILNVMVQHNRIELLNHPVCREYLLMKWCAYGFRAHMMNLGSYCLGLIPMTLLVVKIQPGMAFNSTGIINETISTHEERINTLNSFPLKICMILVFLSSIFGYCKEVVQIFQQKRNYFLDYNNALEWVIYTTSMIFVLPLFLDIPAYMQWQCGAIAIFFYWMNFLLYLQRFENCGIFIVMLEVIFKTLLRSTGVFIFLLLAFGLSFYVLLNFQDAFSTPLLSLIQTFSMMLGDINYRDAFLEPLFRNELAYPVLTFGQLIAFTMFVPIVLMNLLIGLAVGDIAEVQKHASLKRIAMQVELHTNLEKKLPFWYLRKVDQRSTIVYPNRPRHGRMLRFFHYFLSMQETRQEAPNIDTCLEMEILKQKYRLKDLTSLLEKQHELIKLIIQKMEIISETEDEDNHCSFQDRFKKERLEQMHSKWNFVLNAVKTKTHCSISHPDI
Method in brief: as §1

[3] = human TRPA1 CHO cells, AITC 30 μM, compound 1.0 μM
[4] = human TRPA1 CHO cells, AITC 30 μM, compound 10.0 μM
[5] = human TRPA1 CHO cells, AITC 30 μM, read-out: Human IC50 value (Range)
[6] = rat TRPA1 CHO cells, AITC 10 μM, compound 1.0 μM
[7] = rat TRPA1 CHO cells, AITC 10 μM, compound 10.0 μM
[8] = rat TRPA1 CHO cells, AITC 10 μM

| inhibition at 1 µM [1, 3] | inhibition at 10 µM [1, 4] | IC50 [1, 5] | inhibition at 1 µM [2, 6] | inhibition at 10 µM [2, 7] | IC50 [2, 8] | SMILES | IC50 [1] | inhibition at 1 µM ([1]; CHO) | inhibition at 10 µM ([1]; CHO) | inhibition at 1 µM ([2]; CHO) | inhibition at 10 µM ([2]; CHO) |
| --- | --- | --- | --- | --- | --- | --- | --- | --- | --- | --- | --- |
| 99.5% | 100% | < 50 nM | 57.4% | 99.1% | – | Cn1c(=O)c2c(CC(=O)Nc3nc(-c4ccc(C(F)(F)F)c(F)c4)cs3)scc2n(C)c1=O [Example 50, 2-(1,3-Dimethyl-2,4-dioxo-1,2,3,4-tetrahydrothieno[3,4-d]pyrimidin-5-yl)-N-{4-[3-fluoro-4-(trifluoromethyl)phenyl]-1,3-thiazol-2-yl}acetamide] | – | – | – | – | – |
| 96.9% | 91% | < 50 nM | 97% | 100% | < 50 nM | Cn1c(=O)c2c(CC(=O)Nc3nc(-c4ccc(F)c(C(F)(F)F)c4F)cs3)scc2n(C)c1=O [Example 57, N-{4-[2,4-Difluoro-3-(trifluoromethyl)phenyl]-1,3-thiazol-2-yl}-2-(1,3-dimethyl-2,4-dioxo-1,2,3,4-tetrahydrothieno[3,4-d]pyrimidin-5-yl)acetamide] | – | – | – | – | – |
| 98.6% | 97.1% | < 50 nM | 98.8% | 99.8% | < 50 nM | Cn1c(=O)c2c(CC(=O)Nc3nc(-c4ccc(OC(F)(F)F)c(F)c4)cs3)csc2n(C)c1=O [Example 11, 2-(1,3-Dimethyl-2,4-dioxo-1,2,3,4-tetrahydrothieno[2,3-d]pyrimidin-5-yl)-N-{4-[3-fluoro-4-(trifluoromethoxy)phenyl]-1,3-thiazol-2-yl}acetamide] | – | – | – | – | – |
| 97.4% | 98.4% | < 50 nM | 88.7% | 93.3% | 50 to 500 nM | CCc1sc2c(c1CC(=O)Nc1nc(-c3cc(F)c(OCC(F)(F)F)c(F)c3)cs1)c(=O)n(C)c(=O)n2C [Example 34, N-{4-[3,5-Difluoro-4-(2,2,2-trifluoroethoxy)phenyl]-1,3-thiazol-2-yl}-2-(6-ethyl-1,3-dimethyl-2,4-dioxo-1,2,3,4-tetrahydrothieno[2,3-d]pyrimidin-5-yl)acetamide] | – | – | – | – | – |
| – | – | – | – | – | – | Cn1c(=O)c2c(CC(=O)Nc3nc(-c4ccc(C(F)(F)F)cc4F)cs3)csc2n(C)c1=O [Example 7, 2-(1,3-Dimethyl-2,4-dioxo-1,2,3,4-tetrahydrothieno[2,3-d]pyrimidin-5-yl)-N-{4-[2-fluoro-4-(trifluoromethyl)phenyl]-1,3-thiazol-2-yl}acetamide] | < 50 nM | 80.4% | 99.8% | 26.6% | 100% |
